Test results reported in paper PMC3025356, “Mechanism of the Ca^2+-Dependent Interaction between S100A4 and Tail Fragments of Nonmuscle Myosin Heavy Chain IIA” (Journal of Molecular Biology, 2011).

Columns and labels:
S100A4 [1] = target: T1, S100A4 (Homo sapiens, UniProt P26447); assay: Competition with F-M16^N binding to S100A4 (fluorescence anisotropy); details: read-out: Kd (K2) by competition
T1 construct: We used full-length S100A4 for this analysis; made in house; host or cells: Escherichia coli BL21(DE3)
Description: Titration (circles) was carried out in 20 mM NaCl, 10 mM Hepes, 1 mM Mg^2+, and 100 μM Ca^2+ at pH 7.5 and 20 °C. […] (squares).
Fluorescence spectra and anisotropy measurements were recorded using an SLM 8000 spectrofluorimeter (SLM, Urbana, IL). Fluorescein anisotropy measurements were carried out in L-format using a 515-nm emission filter. The four combinations of vertical and horizontal polarisers (vv, vh, hh, and hv) were each recorded for 30 s, and then the initial setting (vv) was re-read to check for signal stability. Calculations of the total fluorescence (Ivv + 2Ivh) and anisotropy (Ivv − Ivh/(Ivv + 2Ivh)), corrected for the g factor (hh/hv), were performed using an Excel spreadsheet. […] Note that the small correction for the emission intensity weighting to the observed anisotropy was not applied to these competitive titrations as the error will tend to cancel.

S100A4 [2] = target: T1, S100A4; details: peptide residues 1908–1923; cited from earlier work
Excerpt: Our kinetic studies are also used to redefine the minimal binding fragment of the NM-MHC IIA tail (Fig. 1). Using a series of overlapping fragments and a blot overlay assay, Kriajevska et al. previously mapped the S100A4 binding site of nonmuscle myosin IIA to a 29-amino-acid region near the C-terminus (residues 1908–1936 in the current numbering system).[9]

S100A4 [3] = target: T1, S100A4; assay: Competition of M32/M16^N with M200 for S100A4 (turbidity); format: biochemical; details: 250 μM peptide, 5 μM M200, 10 μM S100A4, Ca^2+
Description: Fig. 9 Dissociation of M200 filaments by S100A4. (a) Initially, M200 was added (i) from a concentrated stock in 0.5 M NaCl to give a final concentration of 5 μM M200 (with respect to the polypeptide chain) in 100 mM NaCl, 10 mM Hepes, and 0.1 mM Ca^2+ at pH 7.5 and 20 °C. A biphasic rise in turbidity was recorded for 200 s (continuous line). Then 10 μM S100A4 (with respect to monomer concentration) was added (ii), followed by 0.2 mM EGTA (iii) and 1 mM Ca^2+ (iv). […] (b) M200 was diluted (i) into 100 mM NaCl to form filaments as in (a), then 5 μM S100A4 was added (ii), causing a 54% drop in turbidity. A further 5 μM S100A4 (iii) caused turbidity to fall to almost zero. (c) Stopped-flow records monitoring the dissociation of 5 μM M200 filaments on jumping [NaCl] from 100 mM to 120 mM NaCl. Other components of the buffer were 20 mM Hepes, 1 mM Mg^2+, and 100 μM Ca^2+ at pH 7.5 and 20 °C. […] In the presence of 20 μM S100A4 (lower trace), the turbidity decreased by 87% with a rate constant of 0.2 s^− 1.
Further information on Scheme 2 was obtained from competition assays. […] An independent estimate of K5 based on the Ca^2+ dependence of the turbidity assay yielded a value of 0.003 μM (see Supplementary Data).
The decrease in fluorescence, […]
that F-M16N binding was slightly faster. […]
A second estimate was calculated from the apparent Ca2+ binding constant observed in the turbidity assay […]

S100A4 [4] = target: T1, S100A4; assay: Quin-2 fluorescence, Ca^2+ dissociation from S100A4 in the presence of target peptides; format: binding; details: 50 μM peptide premixed with 10 μM S100A4; 100 mM NaCl, 10 mM Hepes, 100 μM Ca^2+, pH 7.5, 20 °C
Description: Ca^2+ dissociation measurements for wild-type S100A4, using Quin-2 as described above, were repeated as a control for the effect of target peptides on this process. On mixing 10 μM S100A4 in the presence of Ca^2+ with 100 μM Quin-2, the observed profile was fitted to a single exponential with kobs = 17 s^− 1 (Fig. 5a; cf. k− 1 in Scheme 1).
Fig. 5 Dissociation of Ca^2+ from S100A4 in the absence and in the presence of target peptides monitored using Quin-2 fluorescence. (a) Mixed with 100 μM Quin-2 was 10 μM S100A4 + 50 μM Ca^2+ (stopped-flow reaction chamber concentrations). A superposed fit to a single exponential yields kobs = 17 s^− 1. […] (d) As in (a), but with 2.5 μM M200 premixed with 5 μM S100A4. A biphasic exponential fit yielded rate constants of 13 s^− 1 (A = 26%) and 0.30 s^− 1 (A = 74%). […] Experiments were carried out in either 20 mM NaCl, 20 mM Tris, 1 mM DTT, and 100 μM Ca^2+ at pH 7.5 and 20 °C (a and b; cf. Malashkevich et al.[17]), or 100 mM NaCl, 10 mM Hepes, and 100 μM Ca^2+ at pH 7.5 and 20 °C (c and d). […] Rate constants were unaffected by the inclusion of 1 mM Mg^2+.
Stopped-flow measurements were carried out using an SX18-MV apparatus (Applied Photophysics Ltd., Leatherhead, UK) with a dead time of 1.5 ms.[40] Records were generally captured on a logarithmic time base. Absorption (turbidity) measurements were usually recorded using a 10-mm pathlength, while fluorescence was recorded with a 2-mm pathlength for excitation and emission. The stated concentrations of components refer to the reaction chamber after mixing, unless otherwise indicated. Tyrosine fluorescence was excited at 280 nm, and the emission was collected through a UG11 bandpass filter plus a 305-nm longpass filter.[18] Fluorescein fluorescence was excited at 480 nm, and the emission was detected through a 515-nm longpass filter. Quin-2 fluorescence was measured by excitation at 336 nm, and emission was collected with a 455-nm longpass filter. For simultaneous recording of light scatter, a second channel was monitored through a UG11 filter. […]

T1 sequence (P26447 whole entry): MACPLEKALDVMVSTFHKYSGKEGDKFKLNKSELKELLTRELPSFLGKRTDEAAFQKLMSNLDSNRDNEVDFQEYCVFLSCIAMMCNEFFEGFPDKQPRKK

Kd (S100A4 [1]): ≥ 100 µM | inhibition of turbidity change amplitude (S100A4 [3]): no effect | kobs, Ca^2+ dissociation with peptide (S100A4 [4]): 16 s^− 1
Structure (SMILES): CSCC[C@H](NC(=O)[C@H](C)NC(=O)[C@H](CC(=O)O)NC(C)=O)C(=O)N[C@@H](CC(N)=O)C(=O)N[C@@H](CCCNC(=N)N)C(=O)N[C@@H](CCC(=O)O)C(=O)N[C@H](C(=O)N[C@@H](CO)C(=O)N[C@@H](CO)C(=O)N[C@@H](CC(C)C)C(=O)N[C@@H](CCCCN)C(=O)N[C@@H](CC(N)=O)C(=O)N[C@@H](CCCCN)C(=O)N[C@@H](CC(C)C)C(=O)N[C@@H](CCCNC(=N)N)C(=O)N[C@@H](CCCNC(=N)N)C(N)=O)C(C)C [M16^N]
difference in binding constant vs longer fragments (1851–1960, 1893–1923) (S100A4 [2]): ~2 -fold
